# What was measured:
# IKZF2 [1] = molecular target: T1, IKZF2 (Homo sapiens (Human), UniProt Q96SW2+Q9UKS7); assay: IKZF2 HiBiT Assay (Jurkat-IKZF2-HiBiT cell line); type: cell-based; conditions: Jurkat-IKZF2-HiBiT cells, 24 hours; for DC50: read-out: HiBit assay degradation analysis DC50; for Dmax: read-out: HiBit assay degradation analysis Dmax
# Outline: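 Jurkat cells carrying HiBiT-tagged IKZF2 were exposed to serially diluted compound for 24 h at 37 °C. Remaining IKZF2 was measured by Nano-Glo HiBiT lytic luminescence after 10-20 min at room temperature. Signal was normalized to DMSO, and IC50 came from a four-parameter variable-slope fit.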
# IKZF1 = IKZF1 (Homo sapiens (Human), UniProt Q13422+Q96SW2); assay: IKZF1 HiBit Assay (HEK293T Flp-in-HiBiT-IKZF1 stable cell line); type: cell-based; conditions: HEK293T Flp-in-HiBiT-IKZF1 cells, 6 hrs; for DC50: read-out: IKZF1 HiBit degradation DC50; for Dmax: HEK-293T, read-out: IKZF1 HiBit degradation Dmax
# Protocol: The HiBiT protein tagging system was applied to modified Cells: modified HEK293T Flp-in-HiBiT-IKZF1 stable cell line (polyclone) via a CRISPR/Cas9—mediated insertion of the HiBiT peptide tag (Promega™) to the N-terminus of the IKZF2 gene locus (Neon™ transfection system).
# Test compound from 10 mM and reference compound (CC-92480 from 50 mM and I-57 from 10 mM) are diluted at 3 folds for 11 doses. 25 nL of diluted compound is transferred to assay plates (Corning3571) using ECHO550, the final DMSO concentration @0.1%. The cells are seeded in 3000/[…]/well to compound plates. The plates are incubated for 6 hrs in TC incubator. The amount of Nano-Glo® HiBiT lytic reagent needed to perform the desired experiments is calculated. The Nano-Glo® HiBiT lytic reagent is brought to room temperature. The LgBiT protein is diluted to 1:100 and the Nano-Glo® HiBiT lytic substrate is brought to 1:50 into an appropriate volume of room temperature Nano-Glo® HiBiT lytic buffer. […] of the detection reagent (or without LgBiT) is dispensed to corresponding well according to the layout. The plate is shaked for 10 mins at room temperature. After briefly centrifuging, the plate is read on Envision. At the indicated timepoints, the Nano-Glo® HiBiT lytic detection system (Promega™) was utilized for detecting bioluminescence of the HiBiT tag in treated cells: abundance of the tag is proportionate to the level of luminescence. Following normalization to DMSO, dose-response curves were plotted (GraphPad Prism) to determine the concentration points at which 50% of HiBiT-Ikaros degradation was achieved by each compound. The extent of degradation (range of luminescence) from the highest to lowest concentration points was calculated to determine the Dm.
# [2] = molecular target: His tagged CRBN+DDB−DLS7+CXU4 (Homo sapiens (Human), UniProt Q96SW2); assay: IC50 Measurements for Binding to CRBN/DDBI (HTRF); conditions: Cy5-labeled Thalidomide probe, one hour incubation
# IKZF2 [3] = molecular target: T1, IKZF2; assay: IKZF2 HiBit Assay (HEK293T Flp-in-HiBiT cells); type: cell-based; conditions: HEK293T Flp-in-HiBiT cells, 6 hrs; for DC50: read-out: IKZF2 HiBit degradation DC50; for Dmax: HEK-293T, read-out: IKZF2 HiBit degradation Dmax
# Protocol: The HiBiT protein tagging system was applied to modified HEK293T Flp-in-HiBiT cells (polyclone) via a CRISPR/Cas9—mediated insertion of the HiBiT peptide tag (Promega™) to the N-terminus of the IKZF2 gene locus (Neon™ transfection system). Test and reference compounds are diluted from 1 mM at 3 folds for 11 doses. 25 nL of diluted compound is transferred to assay plates (Corning3570) using ECHO550, the final DMSO concentration @0.1%. The cells are seeded in 3000/[…]/well to compound plates. It is then incubated for 6 hrs in TC incubator. The amount of Nano-Glo® HiBiT lytic reagent needed to perform the desired experiments is calculated. The Nano-Glo® HiBiT lytic reagent is brought to room temperature. The LgBiT protein is diluted to 1:100 and the Nano-Glo® HiBiT lytic substrate is diluted to 1:50 into an appropriate volume of room temperature Nano-Glo® HiBiT lytic buffer. […] of the detection reagent (or without LgBiT) is dispensed to corresponding well according to the layout. The plate is then shaked for 10 mins at room temperature. After briefly centrifuge, the plate is read on Envision. At the indicated timepoints, the Nano-Glo® HiBiT lytic detection system (Promega™) was utilized for detecting bioluminescence of the HiBiT tag in treated cells: abundance of the tag is proportionate to the level of luminescence. Following normalization to DMSO, dose-response curves were plotted (GraphPad Prism) to determine the concentration points at which 50% of HiBiT-Helios degradation was achieved by each compound. The extent of degradation (range of luminescence) from the highest to lowest concentration points was calculated to determine the Dmax.
# His tagged CRBN+DDB−DLS7+CXU4, sequence (Q96SW2 whole entry): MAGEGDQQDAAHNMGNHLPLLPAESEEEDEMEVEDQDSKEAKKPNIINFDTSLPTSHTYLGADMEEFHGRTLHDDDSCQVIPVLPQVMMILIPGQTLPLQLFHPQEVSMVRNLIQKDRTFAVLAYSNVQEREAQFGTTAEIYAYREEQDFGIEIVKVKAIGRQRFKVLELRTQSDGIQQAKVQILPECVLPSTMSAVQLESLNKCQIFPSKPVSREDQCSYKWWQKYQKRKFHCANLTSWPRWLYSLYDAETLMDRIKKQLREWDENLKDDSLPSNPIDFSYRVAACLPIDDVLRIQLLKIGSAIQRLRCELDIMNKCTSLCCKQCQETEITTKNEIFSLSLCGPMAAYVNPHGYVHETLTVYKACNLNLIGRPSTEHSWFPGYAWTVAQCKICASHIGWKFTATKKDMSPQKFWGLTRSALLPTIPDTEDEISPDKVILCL
# His tagged CRBN+DDB−DLS7+CXU4, sequence (Q16531 whole entry partner): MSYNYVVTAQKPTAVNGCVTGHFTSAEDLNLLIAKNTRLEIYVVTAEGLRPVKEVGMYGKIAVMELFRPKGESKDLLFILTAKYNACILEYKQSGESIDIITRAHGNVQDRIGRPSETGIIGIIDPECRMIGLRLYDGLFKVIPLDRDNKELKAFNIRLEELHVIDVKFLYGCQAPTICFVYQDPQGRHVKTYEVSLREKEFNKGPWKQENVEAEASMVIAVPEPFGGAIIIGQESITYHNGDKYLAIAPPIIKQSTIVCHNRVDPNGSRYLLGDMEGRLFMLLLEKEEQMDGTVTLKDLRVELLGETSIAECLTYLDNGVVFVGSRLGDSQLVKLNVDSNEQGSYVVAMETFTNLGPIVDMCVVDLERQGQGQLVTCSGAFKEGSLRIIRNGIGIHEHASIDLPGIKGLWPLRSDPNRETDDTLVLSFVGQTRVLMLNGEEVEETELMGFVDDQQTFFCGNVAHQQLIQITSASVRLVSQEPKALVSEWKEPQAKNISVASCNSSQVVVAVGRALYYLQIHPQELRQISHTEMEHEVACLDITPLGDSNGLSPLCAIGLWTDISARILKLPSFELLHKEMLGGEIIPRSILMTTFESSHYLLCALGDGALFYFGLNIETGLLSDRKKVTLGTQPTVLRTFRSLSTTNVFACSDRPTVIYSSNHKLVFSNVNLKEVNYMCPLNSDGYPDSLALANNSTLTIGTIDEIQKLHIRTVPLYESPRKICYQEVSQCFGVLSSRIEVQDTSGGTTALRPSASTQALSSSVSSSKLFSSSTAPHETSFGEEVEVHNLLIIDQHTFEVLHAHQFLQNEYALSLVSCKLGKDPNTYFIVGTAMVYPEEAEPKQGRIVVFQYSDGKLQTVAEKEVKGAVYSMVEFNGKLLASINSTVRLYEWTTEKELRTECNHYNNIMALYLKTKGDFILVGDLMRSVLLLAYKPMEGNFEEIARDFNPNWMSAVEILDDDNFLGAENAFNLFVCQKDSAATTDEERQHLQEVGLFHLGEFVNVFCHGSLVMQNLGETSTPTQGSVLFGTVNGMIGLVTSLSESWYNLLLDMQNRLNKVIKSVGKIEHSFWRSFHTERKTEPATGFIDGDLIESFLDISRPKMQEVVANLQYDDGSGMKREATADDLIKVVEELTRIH
# IKZF1, sequence (Q13422 whole entry): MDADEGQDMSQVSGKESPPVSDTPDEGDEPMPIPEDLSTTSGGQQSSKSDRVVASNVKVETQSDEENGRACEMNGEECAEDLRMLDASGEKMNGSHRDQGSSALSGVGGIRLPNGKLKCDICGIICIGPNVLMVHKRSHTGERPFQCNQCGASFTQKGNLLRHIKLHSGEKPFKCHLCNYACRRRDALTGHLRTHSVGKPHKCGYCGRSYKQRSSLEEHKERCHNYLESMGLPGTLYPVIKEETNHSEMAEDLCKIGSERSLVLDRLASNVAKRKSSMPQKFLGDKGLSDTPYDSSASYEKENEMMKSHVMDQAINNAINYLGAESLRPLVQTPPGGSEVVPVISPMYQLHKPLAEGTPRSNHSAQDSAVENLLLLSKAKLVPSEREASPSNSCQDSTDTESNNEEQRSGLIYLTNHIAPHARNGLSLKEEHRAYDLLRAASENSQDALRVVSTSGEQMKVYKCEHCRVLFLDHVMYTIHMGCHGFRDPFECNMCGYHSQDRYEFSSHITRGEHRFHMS
# IKZF1, sequence (Q96SW2 whole entry): as the sequence (Q96SW2 whole entry) above
# IKZF1, sequence (Q16531 whole entry partner): as the sequence (Q16531 whole entry partner) above
# T1 sequence (Q9UKS7 whole entry): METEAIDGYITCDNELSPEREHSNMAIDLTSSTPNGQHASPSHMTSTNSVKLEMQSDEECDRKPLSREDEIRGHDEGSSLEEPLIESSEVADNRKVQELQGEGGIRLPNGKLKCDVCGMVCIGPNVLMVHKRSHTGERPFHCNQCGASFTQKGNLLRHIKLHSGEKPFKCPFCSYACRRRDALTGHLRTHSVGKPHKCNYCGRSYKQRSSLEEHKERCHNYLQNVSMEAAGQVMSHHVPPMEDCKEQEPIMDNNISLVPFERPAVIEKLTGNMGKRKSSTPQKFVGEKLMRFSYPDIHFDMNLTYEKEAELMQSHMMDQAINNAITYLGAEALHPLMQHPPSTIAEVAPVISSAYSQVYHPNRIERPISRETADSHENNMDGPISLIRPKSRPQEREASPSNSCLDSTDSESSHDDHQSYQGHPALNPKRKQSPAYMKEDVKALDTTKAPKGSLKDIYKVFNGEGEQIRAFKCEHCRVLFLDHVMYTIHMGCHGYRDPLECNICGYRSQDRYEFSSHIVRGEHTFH
# T1 sequence (Q96SW2 whole entry): as the sequence (Q96SW2 whole entry) above
# T1 sequence (Q16531 whole entry partner): as the sequence (Q16531 whole entry partner) above
Structure (SMILES),DC50 (IKZF2 [1]) [nM],Dmax (IKZF2 [1]) [%],DC50 (IKZF1) [nM],Dmax (IKZF1) [%],IC50 [2] [nM],DC50 (IKZF2 [3]) [nM],Dmax (IKZF2 [3]) [%]
"O=C1CC[C@H](N2Cc3c(ccc4c3OCC43CCN(Cc4cnn(-c5ccc(C(F)(F)F)cc5)c4)CC3)C2=O)C(=O)N1 [Compound A360, (S)-3-(6-oxo-1′-((1-(4-(trifluoromethyl)phenyl)-1H-pyrazol-4-yl)methyl)-6,8-dihydro-2H,7H-spiro[furo[2,3-e]isoindole-3,4′-piperidin]-7-yl)piperidine-2,6-dione]",< 50,60 to 80,–,–,–,–,–
"CC(C)Oc1cc(F)ccc1CN1CCC2(CC1)COc1c2ccc2c1CN([C@H]1CCC(=O)NC1=O)C2=O [Compound A361, (S)-3-(1′-(4-fluoro-2-isopropoxybenzyl)-6-oxo-6,8-dihydro-2H,7H-spiro[furo[2,3-e]isoindole-3,4′-piperidin]-7-yl)piperidine-2,6-dione]",> 500,40 to 60,–,–,–,–,–
"O=C1CC[C@H](N2Cc3c(ccc4c3OCC43CCN(C[C@@H]4C[C@H]4c4ccc(F)cc4)CC3)C2=O)C(=O)N1 [Compound A362, (S)-3-(1′-(((1R,2R)-2-(4-fluorophenyl)cyclopropyl)methyl)-6-oxo-6,8-dihydro-2H,7H-spiro[furo[2,3-e]isoindole-3,4′-piperidin]-7-yl)piperidine-2,6-dione]",> 500,40 to 60,–,–,–,–,–
"O=C1CC[C@H](N2Cc3c(ccc4c3OCC43CCN(Cc4cnn(-c5ccc(Cl)cc5)c4C(F)(F)F)CC3)C2=O)C(=O)N1 [Compound B1, (S)-3-(1′-((1-(4-chlorophenyl)-5-(trifluoromethyl)-1H-pyrazol-4-yl)methyl)-6-oxo-6,8-dihydro-2H,7H-spiro[furo[2,3-e]isoindole-3,4′-piperidin]-7-yl) piperidine-2,6-dione]",–,–,100 to 1000,20 to 40,500 to 1000,1 to 10,40 to 60
"O=C1CC[C@H](N2Cc3c(ccc4c3OCC43CCN(Cc4cc(-c5ccc(Cl)cc5)no4)CC3)C2=O)C(=O)N1 [Compound B2, (S)-3-(1′-((3-(4-chlorophenyl)isoxazol-5-yl)methyl)-6-oxo-6,8-dihydro-2H,7H-spiro[furo[2,3-e]isoindole-3,4′-piperidin]-7-yl)piperidine-2,6-dione]",–,–,10 to 100,20 to 40,1000 to 5000,1 to 10,60 to 80
"O=C1CC[C@H](N2Cc3c(ccc4c3OCC43CCN(Cc4cc(-c5ccc(Cl)cc5)ns4)CC3)C2=O)C(=O)N1 [Compound B3, (S)-3-(1′-((3-(4-chlorophenyl)isothiazol-5-yl)methyl)-6-oxo-6,8-dihydro-2H,7H-spiro[furo[2,3-e]isoindole-3,4′-piperidin]-7-yl)piperidine-2,6-dione]",–,–,> 1000,< 20,< 100,10 to 100,60 to 80
"O=C1CC[C@H](N2Cc3c(ccc4c3OCC43CCN(Cc4cnn(CC5CCOCC5)c4)CC3)C2=O)C(=O)N1 [Compound B6, (S)-3-(6-oxo-1′-((1-((tetrahydro-2H-pyran-4-yl)methyl)-1H-pyrazol-4-yl)methyl)-6,8-dihydro-2H,7H-spiro[furo[2,3-e]isoindole-3,4′-piperidin]-7-yl)piperidine-2,6-dione]",–,–,> 1000,< 20,–,1 to 10,60 to 80
"O=C1CC[C@@H](N2Cc3c(ccc4c3OCC43CCN(Cc4cccc(-c5cnn(C6COC6)c5)c4)CC3)C2=O)C(=O)N1 [Compound B15, (R)-3-(1′-(3-(1-(oxetan-3-yl)-1H-pyrazol-4-yl)benzyl)-6-oxo-6,8-dihydro-2H,7H-spiro[furo[2,3-e]isoindole-3,4′-piperidin]-7-yl)piperidine-2,6-dione]",–,–,> 1000,< 20,–,1 to 10,> 80
"O=C1CCC(N2Cc3c(ccc4c3OCC43CCN(Cc4cccc5cn[nH]c45)CC3O)C2=O)C(=O)N1 (stereo not drawn) [Compound B24, 3-(1′-((1H-indazol-7-yl)methyl)-3′-hydroxy-6-oxo-6,8-dihydro-2H,7H-spiro[furo[2,3-e]isoindole-3,4′-piperidin]-7-yl)piperidine-2,6-dione]",–,–,> 1000,< 20,–,10 to 100,60 to 80
"O=C1CCC(N2Cc3c(ccc4c3OCC43CCN(Cc4ccccc4)CC3(F)F)C2=O)C(=O)N1 (stereo not drawn) [Compound B25, 3-(1′-benzyl-3′,3′-difluoro-6-oxo-6,8-dihydro-2H,7H-spiro[furo[2,3-e]isoindole-3,4′-piperidin]-7-yl)piperidine-2,6-dione]",–,–,1 to 10,20 to 40,–,1 to 10,60 to 80
"O=C1CC[C@H](N2Cc3c(ccc4c3OCC43CCN(Cc4cnn(CC5CCS(=O)(=O)CC5)c4)CC3(F)F)C2=O)C(=O)N1 (stereo partly drawn) [Compound B47, (3S)-3-(1′-((1-((1,1-dioxidotetrahydro-2H-thiopyran-4-yl)methyl)-1H-pyrazol-4-yl)methyl)-3′,3′-difluoro-6-oxo-6,8-dihydro-2H,7H-spiro[furo[2,3-e]isoindole-3,4′-piperidin]-7-yl)piperidine-2,6-dione]",–,–,> 1000,< 20,–,10 to 100,60 to 80
"O=C1CC[C@H](N2Cc3c(ccc4c3OC[C@@]43CCN(Cc4cccc(-c5cnn(C6COC6)c5)c4)CC3(F)F)C2=O)C(=O)N1 [Compound B54, (S)-3-((R)-3′,3′-difluoro-1′-(3-(1-(oxetan-3-yl)-1H-pyrazol-4-yl)benzyl)-6-oxo-6,8-dihydro-2H,7H-spiro[furo[2,3-e]isoindole-3,4′-piperidin]-7-yl)piperidine-2,6-dione]",–,–,> 1000,20 to 40,–,1 to 10,60 to 80
"O=C1CC[C@H](N2Cc3c(ccc4c3NCC43CCN(Cc4ccccc4)CC3)C2=O)C(=O)N1 [Compound B56, (S)-3-(1-benzyl-6′-oxo-1′,2′,6′,8′-tetrahydro-7′H-spiro[piperidine-4,3′-pyrrolo[3,4-g]indol]-7′-yl)piperidine-2,6-dione]",–,–,> 1000,< 20,–,10 to 100,40 to 60
"Cn1cc(-c2cccc(CN3CCC4(CC3)CNc3c4ccc4c3CN([C@H]3CCC(=O)NC3=O)C4=O)c2)cn1 [Compound B57, (S)-3-(1-(3-(1-methyl-1H-pyrazol-4-yl)benzyl)-6′-oxo-1′,2′,6′,8′-tetrahydro-7′H-spiro[piperidine-4,3′-pyrrolo[3,4-g]indol]-7′-yl)piperidine-2,6-dione]",–,–,> 1000,< 20,–,10 to 100,60 to 80
"N#Cc1ccc(-n2cc(CN3CCC4(CC3)CNc3c4ccc4c3CN([C@H]3CCC(=O)NC3=O)C4=O)cn2)cc1 [Compound B58, (S)-4-(4-((7′-(2,6-dioxopiperidin-3-yl)-6′-oxo-1′,6′,7′,8′-tetrahydro-2′H-spiro[piperidine-4,3′-pyrrolo[3,4-g]indol]-1-yl)methyl)-1H-pyrazol-1-yl)benzonitrile]",–,–,> 1000,< 20,–,1 to 10,40 to 60

# Source: patent publication US20250215012A1, “IKZF2 DEGRADERS AND USES THEREOF” (REGENTS OF THE UNIVERSITY OF MICHIGAN, priority 2022, published 2025)
